Reference: publication PMC11587516 (ACS Chemical Neuroscience, 2024)
Positions count from the first letter of the chain named.

Key:
Format in all cases: cell-based
[1] = molecular target: T1, hBGT1 E52A (Homo sapiens, UniProt P48065, E52A); assay: [3H]GABA uptake assay, hBGT1 mutant E52A in tsA201 cells
T1 construct: host or cells: tsA201 cells (transformed HEK293), transient expression
T1 sequence (P48065 1-614 E52A): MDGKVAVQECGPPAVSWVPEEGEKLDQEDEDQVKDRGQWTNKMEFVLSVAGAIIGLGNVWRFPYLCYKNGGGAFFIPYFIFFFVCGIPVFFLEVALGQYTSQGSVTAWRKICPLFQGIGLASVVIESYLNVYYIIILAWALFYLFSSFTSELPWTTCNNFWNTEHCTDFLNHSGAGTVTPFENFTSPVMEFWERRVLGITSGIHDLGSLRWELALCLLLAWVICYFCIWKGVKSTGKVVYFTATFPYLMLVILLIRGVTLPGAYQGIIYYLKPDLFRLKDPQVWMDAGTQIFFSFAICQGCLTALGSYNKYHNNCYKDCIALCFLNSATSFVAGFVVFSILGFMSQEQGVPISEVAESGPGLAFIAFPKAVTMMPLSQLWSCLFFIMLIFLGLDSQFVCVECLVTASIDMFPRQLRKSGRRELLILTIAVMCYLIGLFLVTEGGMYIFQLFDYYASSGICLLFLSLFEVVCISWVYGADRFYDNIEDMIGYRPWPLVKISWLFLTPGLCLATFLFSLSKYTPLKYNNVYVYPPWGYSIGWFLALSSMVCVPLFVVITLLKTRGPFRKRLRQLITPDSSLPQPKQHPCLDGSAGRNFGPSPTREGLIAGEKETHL
Procedure: (§1) To validate the molecular modeling, particularly the crucial interactions with the Glu52 and Gln299 residues, the activity of compound 9 was tested on the following hBGT1 mutants: E52A, E52Y, Q299L, and the double mutant E52A+Q299L (Figure 5 and Table 1).[14]
(§2) The CHO cells were placed in 96-well plates (approximately 50,000 cells/well) for about 24 h before the experiment. […] After incubation, cells were washed 3 times with 100 μL/well ice-cold assay buffer, 150 μL/well MicroScint20 (PerkinElmer) was subsequently added before the plate was shaken for at least 1 h. The radioactivity of each well of the plate was measured on a TopCount NXT scintillation counter. […] Data presented are the pooled data of at least three independent experiments with three technical replicates if not stated otherwise in figure legends. Concentration–response curves were fitted by nonlinear regression to the sigmoidal concentration–response model with GraphPad Prism v 9.0.
(§3) The tsA201 cell line (a transformed HEK293 cell line) has been described previously and was cultured accordingly.[20] The tsA201 cells used for transient expression of hBGT1 mutants were transfected with DNA constructs (8 μg per 10 cm plate) using 40 μL of PolyFect transfection reagent according to the manufacturer’s protocol (Qiagen). […]

[2] = molecular target: T2, hBGT1 Q299L (Homo sapiens, UniProt P48065, Q299L); assay: [3H]GABA uptake assay, hBGT1 mutant Q299L in tsA201 cells
T2 construct: HA; expressed in transfected cells; host or cells: tsA201 cells (transformed HEK293), transient expression
T2 sequence (P48065 1-614 Q299L): T1 sequence (P48065 1-614 E52A) with A52E, Q299L
Procedure: as §1, §2, §3

[3] = test system: normal human astrocytes (NHA); assay: WST-1 viability and proliferation assay on normal human astrocytes; conditions: 1–100 μM in culture medium; 24 and 48 h
Procedure: Taking into account the presence of BGT1 and GAT3 transporters in astrocytes, we studied the effect of compound 9 on astrocyte viability, proliferation, and homeostasis. Normal human astrocytes (NHA) were treated with 1–100 μM compound 9 in a culture medium. The WST-1 assay was used to determine the number of metabolically active cells after 24 and 48 h of incubation. […] In the next step, a higher concentration (500 μM) of the compound and a longer incubation time (72 h) were applied, and the cells were examined by phase-contrast microscopy. […] Considering the results shown in Figure 6, compound 9 was not cytotoxic toward human astrocytes under in vitro culture conditions.
Gibco Human Astrocytes (Thermo Fisher Scientific) were maintained in a humidified 5% CO2 incubator at 37 °C. The cells were cultured in Gibco Astrocyte Medium (DMEM with GlutaMAX, N-2 Supplement, and OneShot Fetal Bovine Serum) supplemented with penicillin G (100 U/mL), neomycin (10 μg/mL), and amphotericin B (0.25 μg/mL).
The effect of compound 9 on cell viability and cell proliferation was evaluated using a WST-1 assay (Roche GmbH, Mannheim, Germany) based on the cleavage of the WST-1 reagent into formazan by mitochondrial dehydrogenases in metabolically active (viable) cells. […] The absorbance was measured at 440 and 650 nm using a microplate reader Infinite 200 PRO (TECAN).

## NC12CC(C(=O)O)(C1)C2 [Compound 9]
[1]
  IC50: 64.2 µM
[1]; E52A vs wt
  decrease in activity compared with wild type hBGT1: ~2 fold
[2]
  IC50: 73.5 µM
[2]; Q299L vs wt
  decrease in activity compared with wild type hBGT1: more than 2 fold
[3]
  effect on astrocyte survival and proliferation (WST-1): no effect on astrocyte survival and proliferation
